Assay results published in the supplement of paper PMC11061612.

Assays:
EW-18 (Ewing's Sarcoma) = test: combination Emax (second highest fraction inhibited in the dose matrix, 72 h); higher = more inhibition; extreme values may be limits of the assay
Summary of the method: (§1)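 Bliss excess equals the observed combination effect minus the expected value EA + EB − EA·EB, where EA and EB are the effects of each agent alone. Combination Emax is the second-highest inhibition within the matrix. Inhibition was scaled from CellTiter-Glo 2.0 luminescence, with 0 set by vehicle wells and 1 by blank wells, after 72 hours of two-drug dosing of cells plated in 1536-well plates.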

[1] = test system: ASH-3 (Thyroid Gland Carcinoma); test: as above
Summary of the method: as §1

[2] = test system: SNU-C1 (Colorectal Carcinoma); test: as above
Summary of the method: as §1

[3] = test system: VMRC-LCD (Lung Adenocarcinoma); test: as above
Summary of the method: as §1

[4] = test system: OCUM-1 (Gastric Carcinoma); test: as above
Summary of the method: as §1

[5] = test system: LOU-NH91 (Squamous Cell Lung Carcinoma); test: as above
Summary of the method: as §1

[6] = test system: KINGS-1 (Low Grade Glioma); test: as above
Summary of the method: as §1

[7] = test system: KYSE-150 (Esophageal Squamous Cell Carcinoma); test: Bliss excess, mean over the matrix (fraction); higher = more synergy
Summary of the method: as §1

GI-1 (Glioblastoma) = test: as above
Summary of the method: as §1

[8] = test system: EMC-BAC-2 (Non-Small Cell Lung Carcinoma); test: as above
Summary of the method: as §1

RPMI-7951 (Melanoma) = test: as above
Summary of the method: as §1

IMR-5 (Neuroblastoma) = test: as above
Summary of the method: as §1

[9] = test system: PF-382 (T-Lymphoblastic Leukemia); test: as above
Summary of the method: as §1

NB7 (Neuroblastoma) = test: as above
Summary of the method: as §1

[10] = test system: NCI-H2347 (Lung Adenocarcinoma); test: as above
Summary of the method: as §1

[11] = test system: SNU-C1 (Colorectal Carcinoma); test: as above
Summary of the method: as §1

[12] = test system: OCUM-1 (Gastric Carcinoma); test: as above
Summary of the method: as §1

[13] = test system: NCI-N87 (Gastric Carcinoma); test: as above
Summary of the method: as §1

[14] = test system: KYSE-50 (Esophageal Squamous Cell Carcinoma); test: as above
Summary of the method: as §1

[15] = test system: NCI-H1573 (Lung Adenocarcinoma); test: as above
Summary of the method: as §1

| Compound | combination Emax (EW-18 (Ewing's Sarcoma)) | combination Emax [1] | combination Emax [2] | combination Emax [3] | combination Emax [4] | combination Emax [5] | combination Emax [6] | Bliss excess [7] | Bliss excess (GI-1 (Glioblastoma)) | Bliss excess [8] | Bliss excess (RPMI-7951 (Melanoma)) | Bliss excess (IMR-5 (Neuroblastoma)) | Bliss excess [9] | Bliss excess (NB7 (Neuroblastoma)) | Bliss excess [10] | Bliss excess [11] | Bliss excess [12] | Bliss excess [13] | Bliss excess [14] | Bliss excess [15] |
| --- | --- | --- | --- | --- | --- | --- | --- | --- | --- | --- | --- | --- | --- | --- | --- | --- | --- | --- | --- | --- |
| CC1(C)CCC(CN2CCN(c3ccc(C(=O)NS(=O)(=O)c4ccc(NCC5CCOCC5)c([N+](=O)[O-])c4)c(Oc4cnc5[nH]ccc5c4)c3)CC2)=C(c2ccc(Cl)cc2)C1 [Venetoclax] + Cc1cc2ncnn2cc1Nc1ncc2c(n1)n(C1CCOCC1)c(=O)n2C [AZD7648] (first compound max 1 µM, 7x7, partner max 10 µM) | 0.455 | 0.263 | 0.227 | 0.179 | 0.216 | 0.264 | 0.329 | -0.0509 | 0.0369 | -0.0596 | -0.0226 | -0.0038 | -0.0134 | -0.018 | -0.0665 | -0.0259 | -0.0144 | -0.0609 | 0.0065 | -0.0242 |
| COc1nnc2ccc(N3CCC(c4ccc(OCCN5CCN(C)C(=O)[C@H]5C)cc4)CC3)nn12 [AZD5153] + CC1(C)CCC(CN2CCN(c3ccc(C(=O)NS(=O)(=O)c4ccc(NCC5CCOCC5)c([N+](=O)[O-])c4)c(Oc4cnc5[nH]ccc5c4)c3)CC2)=C(c2ccc(Cl)cc2)C1 [Venetoclax] (first compound max 1 µM, 7x7, partner max 1 µM) | 0.615 | 0.718 | 0.46 | 0.489 | 0.567 | 0.641 | 0.159 | 0.0061 | 0.0247 | -0.101 | -0.0292 | -0.0119 | -0.0551 | -0.0287 | -0.11 | -0.061 | -0.0456 | -0.0978 | -0.0591 | -0.0885 |
| CN(CCO)CC[C@H](CSc1ccccc1)Nc1ccc(S(=O)(=O)NC(=O)c2ccc(N3CCC([C@@H](O)c4ccccc4-c4ccc(Cl)cc4)CC3)cc2)cc1S(=O)(=O)C(F)(F)F [AZD4320] + CN(C)CCCOc1ccc(-c2ccc3ncc4c(c3c2)n(C2CCOCC2)c(=O)n4C)cn1 [AZD0156] (first compound max 1 µM, 7x7, partner max 1 µM) | 0.91 | 0.498 | 0.439 | 0.0958 | 0.734 | 0.476 | 0.588 | -0.0392 | 0.0066 | -0.0683 | 0.0046 | 0.0284 | -0.002 | -0.0333 | -0.0378 | -0.0283 | -0.055 | -0.0474 | -0.0341 | -0.0255 |
| Cc1cc2ncnn2cc1Nc1ncc2c(n1)n(C1CCOCC1)c(=O)n2C [AZD7648] + C[C@@H]1COCCN1C2=NC(=NC(=C2)C3(CC3)[S@](=N)(=O)C)C4=C5C=CNC5=NC=C4 [AZD6738] (first compound max 10 µM, 7x7, partner max 10 µM) | 0.636 | 0.509 | 0.38 | 0.579 | 0.719 | 0.295 | 0.283 | -0.0061 | 0.018 | 0.0575 | 0.0028 | 0.0088 | 0.0263 | 0.0143 | -0.0451 | -0.0708 | 0.009 | 0.024 | -0.0089 | 0.0363 |
| Cc1cc2ncnn2cc1Nc1ncc2c(n1)n(C1CCOCC1)c(=O)n2C [AZD7648] + C=CCn1c(=O)c2cnc(Nc3ccc(N4CCN(C)CC4)cc3)nc2n1-c1cccc(C(C)(C)O)n1 [AZD1775] (first compound max 10 µM, partner max 1 µM) | 0.553 | 0.324 | 0.392 | 0.425 | 0.384 | 0.466 | 0.318 | 0.0333 | 0.0071 | 0.0058 | -0.039 | -0.0146 | -0.0029 | -0.011 | -0.0279 | -0.0209 | -0.0244 | -0.0342 | 0.0011 | -0.0215 |
| CS(=O)(=O)CCNCc1ccc(-c2ccc3ncnc(Nc4ccc(OCc5cccc(F)c5)c(Cl)c4)c3c2)o1 [Lapatinib] + C[C@@H](Oc1cc(-c2cnn(C3CCNCC3)c2)cnc1N)c1c(Cl)ccc(F)c1Cl [Crizotinib] (first compound max 10 µM, 7x7, partner max 10 µM) | 0.951 | 0.908 | 0.675 | 0.711 | 0.596 | 0.924 | 0.921 | -0.0355 | -0.0444 | -0.021 | -0.0655 | -0.0113 | -0.0296 | -0.0172 | -0.0421 | -0.0359 | -0.0252 | -0.0456 | -0.0352 | 0.121 |
| CN(C)CCCOc1ccc(-c2ccc3ncc4c(c3c2)n(C2CCOCC2)c(=O)n4C)cn1 [AZD0156] + C=CCn1c(=O)c2cnc(Nc3ccc(N4CCN(C)CC4)cc3)nc2n1-c1cccc(C(C)(C)O)n1 [AZD1775] (first compound max 1 µM, partner max 1 µM) | 0.556 | 0.203 | 0.295 | 0.357 | 0.548 | 0.371 | 0.293 | -0.0386 | -0.0207 | -0.0289 | -0.0055 | -0.0214 | -0.0121 | -0.0198 | -0.0627 | -0.0401 | 0.0183 | -0.0181 | -0.0116 | -0.0537 |
| COc1cccc(OCCCN)c1-c1cc(Nc2cnc(C#N)cn2)n[nH]1 [Prexasertib] + C[C@@H]1COCCN1C2=NC(=NC(=C2)C3(CC3)[S@](=N)(=O)C)C4=C5C=CNC5=NC=C4 [AZD6738] (first compound max 1 µM, 7x7, partner max 10 µM) | 0.745 | 0.705 | 0.73 | 0.753 | 0.813 | 0.461 | 0.506 | -0.0265 | -0.0195 | 0.0076 | -0.0372 | -0.01 | -0.0558 | -0.0018 | -0.081 | -0.0078 | -0.0698 | -0.0253 | 0.0034 | 0.0055 |
| CC1(C)CCC(CN2CCN(c3ccc(C(=O)NS(=O)(=O)c4ccc(NCC5CCOCC5)c([N+](=O)[O-])c4)c(Oc4cnc5[nH]ccc5c4)c3)CC2)=C(c2ccc(Cl)cc2)C1 [Venetoclax] + C1CN(CCC1(C(=O)N[C@@H](CCO)C2=CC=C(C=C2)Cl)N)C3=NC=NC4=C3C=CN4 [Capivasertib] (first compound max 1 µM, 7x7, partner max 3 µM) | 0.662 | 0.285 | 0.428 | 0.193 | 0.314 | 0.36 | 0.329 | 0.0107 | -0.0234 | -0.116 | -0.0233 | -0.0486 | -0.0144 | -0.0301 | -0.0627 | -0.109 | -0.0252 | -0.0833 | -0.0418 | -0.0733 |
| CC1(C)CCC(CN2CCN(c3ccc(C(=O)NS(=O)(=O)c4ccc(NCC5CCOCC5)c([N+](=O)[O-])c4)c(Oc4cnc5[nH]ccc5c4)c3)CC2)=C(c2ccc(Cl)cc2)C1 [Venetoclax] + C=CCn1c(=O)c2cnc(Nc3ccc(N4CCN(C)CC4)cc3)nc2n1-c1cccc(C(C)(C)O)n1 [AZD1775] (first compound max 1 µM, partner max 1 µM) | 0.587 | 0.294 | 0.555 | 0.391 | 0.653 | 0.436 | 0.567 | -0.0452 | -0.0127 | -0.0562 | -0.0559 | 0.0237 | -0.0639 | 0.0082 | -0.0762 | -0.0136 | 0.0513 | 0.0552 | -0.0395 | -0.0513 |
| COc1cccc2c1C(=O)c1c(O)c3c(c(O)c1C2=O)C[C@@](O)(C(=O)CO)C[C@@H]3O[C@H]1C[C@H](N)[C@H](O)[C@H](C)O1 [Doxorubicin] + Cc1cc2ncnn2cc1Nc1ncc2c(n1)n(C1CCOCC1)c(=O)n2C [AZD7648] (first compound max 1 µM, 7x7, partner max 10 µM) | 0.754 | 0.912 | 0.407 | 0.612 | 0.596 | 0.782 | 0.664 | 0.0648 | 0.107 | 0.0828 | 0.0709 | 0.194 | 0.109 | 0.0742 | -0.0486 | -0.0037 | 0.0162 | -0.0298 | 0.0331 | -0.0038 |
| CC1(C)CCC(CN2CCN(c3ccc(C(=O)NS(=O)(=O)c4ccc(NCC5CCOCC5)c([N+](=O)[O-])c4)c(Oc4cnc5[nH]ccc5c4)c3)CC2)=C(c2ccc(Cl)cc2)C1 [Venetoclax] + C[C@@H]1COCCN1C2=NC(=NC(=C2)C3(CC3)[S@](=N)(=O)C)C4=C5C=CNC5=NC=C4 [AZD6738] (first compound max 1 µM, 7x7, partner max 10 µM) | 0.67 | 0.57 | 0.366 | 0.537 | 0.672 | 0.411 | 0.344 | -0.0979 | -0.0025 | -0.0196 | -0.0474 | 0.0104 | 0.0366 | -0.0342 | -0.0454 | -0.124 | -0.0242 | -0.0232 | -0.0492 | -0.0313 |
| CC(=O)Nc1cccc(-n2c(=O)n(C3CC3)c(=O)c3c(Nc4ccc(I)cc4F)n(C)c(=O)c(C)c32)c1 [Trametinib] + Cc1nc(-c2cn3c(n2)-c2ccc(-c4cnn(C(C)(C)C(N)=O)c4)cc2OCC3)n(C(C)C)n1 [Taselisib] (first compound max 1 µM, 7x7, partner max 10 µM) | 0.637 | 0.962 | 0.79 | 0.212 | 1 | 0.672 | 0.894 | 0.123 | 0.0885 | 0.0528 | 0.0161 | 0.0467 | 0.234 | -0.0716 | 0.135 | -0.0022 | 0.06 | 0.067 | 0.108 | 0.088 |
